Test results: article PMC12274840 (The Journal of Biological Chemistry, 2025)
Several values for one entry are separate records, joined by “and”; a condition that tells them apart may be missing. Identical values can stand only once.

Legend:
CTX-M-14 Y105G [1] = biological target: T1, CTX-M-14 Y105G (Escherichia coli, UniProt Q9L5C7, Y108G); format: biochemical
T1 construct: 29 to 291 of CTX-M-14 (Q9L5C7); His tag with TEV cleavage site (N); made in house; host or cells: E. coli BL21 (DE3) pLysS

TEM-1 Y105G [2] = biological target: T2, TEM-1 Y105G (Escherichia coli, UniProt P62593, Y103G); assay: Steady-state kinetics of substrate hydrolysis, TEM-1 Y105G; format: biochemical; details: phosphate buffer pH 6.4, 25 °C
BlaC WT [3] = biological target: T3, BlaC WT (Mycobacterium tuberculosis, UniProt P9WKD3); format: biochemical
T3 construct: correspond to residue numbers 41-307 of BlaC (Uniprot entry P9WKD3-1); His tag with TEV cleavage site (N); made in house; host or cells: E. coli BL21 (DE3) pLysS

CTX-M-14 WT = biological target: T4, CTX-M-14 WT (Escherichia coli, UniProt Q9L5C7); assay: biochemical
T4 construct: 29 to 291 of CTX-M-14 (Q9L5C7); His tag with TEV cleavage site (N); made in house; host or cells: E. coli BL21 (DE3) pLysS

CTX-M-14 Y105G [4] = biological target: T1, CTX-M-14 Y105G; assay: biochemical
TEM-1 Y105G [5] = biological target: T2, TEM-1 Y105G; assay: In vitro inhibition of nitrocefin hydrolysis and simulation of inhibition curves, TEM-1 Y105G; format: biochemical
TEM-1 WT [6] = biological target: T5, TEM-1 WT (Escherichia coli, UniProt P62593); details: phosphate buffer pH 6.4, 25 °C
BlaC WT [7] = biological target: T3, BlaC WT; details: pH 6.4, cited from earlier work
TEM-1 WT [8] = biological target: T5, TEM-1 WT; format: biochemical; design: 24 to 286 of TEM-1 (P62593); His tag with TEV cleavage site (N); made in house; host or cells: E. coli BL21 (DE3) pLysS
[9] = nitrocefin parameter (Eq 7) in simulation of avibactam inhibition curves, CTX-M-14 Y105G
[10] = nitrocefin parameter (Eq 7) in simulation of avibactam inhibition curves
[11] = nitrocefin parameter (Eq 7) in simulation of clavulanic acid inhibition curves

T3 sequence (P9WKD3 41-307): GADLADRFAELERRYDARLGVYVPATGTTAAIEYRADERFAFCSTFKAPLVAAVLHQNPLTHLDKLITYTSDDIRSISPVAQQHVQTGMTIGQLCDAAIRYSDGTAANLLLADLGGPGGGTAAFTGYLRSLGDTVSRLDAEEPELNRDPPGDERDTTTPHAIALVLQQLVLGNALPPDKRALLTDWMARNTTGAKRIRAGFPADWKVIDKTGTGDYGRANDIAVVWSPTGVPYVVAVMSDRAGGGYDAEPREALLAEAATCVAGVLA

What does the source list for `O=C(Cc1cccs1)N[C@@H]1C(=O)N2C(C(=O)O)=C(/C=C/c3ccc([N+](=O)[O-])cc3[N+](=O)[O-])CS[C@H]12` [nitrocefin]?
kcat (CTX-M-14 Y105G [1]; phosphate buffer pH 6.4, 25 °C): 963 ± 117 s⁻¹; Km (CTX-M-14 Y105G [1]; read-out: KM^app, phosphate buffer pH 6.4, 25 °C): 700 ± 172 µM; kcat (TEM-1 Y105G [2]): 453 ± 80 s⁻¹; ka (BlaC WT [3]): 1.05 µM⁻¹ s⁻¹; kc (BlaC WT [3]): 82.5 s⁻¹ and 56 s⁻¹; Kd (CTX-M-14 WT): 50 µM; kc (CTX-M-14 WT): 545 s⁻¹; Kd (CTX-M-14 Y105G [4]): 760 µM; ka (CTX-M-14 Y105G [4]; [9]): 50 µM⁻¹ s⁻¹; kc (CTX-M-14 Y105G [4]; [9]): 460 s⁻¹; ka (TEM-1 Y105G [5]; [10]): 10 µM⁻¹ s⁻¹; kc (TEM-1 Y105G [5]; [10]): 95 s⁻¹; ka (TEM-1 Y105G [5]; [11]): 10 µM⁻¹ s⁻¹; kc (TEM-1 Y105G [5]; [11]): 154 s⁻¹; kcat (TEM-1 WT [6]): 933 ± 33 s⁻¹; kcat (BlaC WT [7]): 86 ± 2 s⁻¹; Km (BlaC WT [7]; read-out: KM^app): 131 ± 2 µM; ka (TEM-1 WT [8]): 45 µM⁻¹ s⁻¹; kc (TEM-1 WT [8]): 830 s⁻¹ and 1040 s⁻¹
